Experimental data: article PMC7686382, “Bioassay-based Corchorus capsularis L. leaf-derived β-sitosterol exerts antileishmanial effects against Leishmania donovani by targeting trypanothione reductase” (Scientific Reports, 2020)

Molecular target: T1, Leishmania donovani trypanothione reductase (LdTryR) (Leishmania donovani, UniProt P39050)
T1 construct: gene TPR; recombinant LdTryR
Test: spectrophotometric NADPH oxidation assay ([…] nm) on recombinant enzyme, Lineweaver-Burk kinetics
Assay type: biochemical

T1 sequence (P39050 whole entry): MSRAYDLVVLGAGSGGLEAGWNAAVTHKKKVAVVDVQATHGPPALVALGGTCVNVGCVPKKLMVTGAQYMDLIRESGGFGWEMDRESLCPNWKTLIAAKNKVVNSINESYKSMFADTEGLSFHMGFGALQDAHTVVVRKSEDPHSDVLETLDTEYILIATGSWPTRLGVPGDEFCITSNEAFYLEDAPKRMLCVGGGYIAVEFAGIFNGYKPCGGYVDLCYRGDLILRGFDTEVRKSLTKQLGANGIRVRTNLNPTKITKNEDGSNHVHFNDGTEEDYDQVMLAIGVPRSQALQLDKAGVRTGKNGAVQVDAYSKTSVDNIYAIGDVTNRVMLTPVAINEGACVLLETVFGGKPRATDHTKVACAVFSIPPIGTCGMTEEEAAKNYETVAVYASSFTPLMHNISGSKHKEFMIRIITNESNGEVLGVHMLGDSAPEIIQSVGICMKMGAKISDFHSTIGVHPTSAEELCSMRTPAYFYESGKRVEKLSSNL

CC[C@H](CC[C@@H](C)[C@H]1CC[C@H]2[C@@H]3CC=C4C[C@@H](O)CC[C@]4(C)[C@H]3CC[C@]12C)C(C)C [β-sitosterolCCL, β-sitosterol]
Ki: 8.43 µM
